Reference: patent US20230248717A1, “N-(3-HYDROXYPYRIDINE-2-CARBONYL)GLYCINE-BASED ANTITUMOR DRUG SENSITIZER AND APPLICATION THEREOF” (ZHEJIANG UNIVERSITY, priority 2019, published 2023)
≈ marks a conversion by molar mass, not a printed value. Where two headings read alike, the source gives them in different places.

Key:
[1] = system: CT26 mouse colon cancer cells;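 also: MTT read-out taken as absorbance at 562 nm after a 3 h dye incubation, medium-only wells as blank, values averaged over three independent experiments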
Protocol: (§1) CT26 cells (MC38 cells, 4T1 cells, B16FIO cells, HePa1-6 cells, H22 cells, LLC cells, MB49 cells, P388 cells, C6 cells, BXPC-3 cells, Hela cells, MDA-MB-231 cells, A2780 cells. PC3 cells. HepG2 cells, and HGC-27 cells) were cultured at 5,000 cells/well in a 96-well plate, 100 μL of a medium was added to each well, and the cells were incubated in a 37° C. constant-temperature incubator with 5% CO2 and 95% humidity for 24 h. 100 μL of different concentrations of drugs (DOX: 0.01 μg/mL to 10 μg/mL; PTX: 0.01 μg/mL to 50 μg/mL; Cela: 0.05 μg/mL to 1 μg/mL; sensitizer: 5 μg/mL) were added to each well, while 100 lit of a medium solution was added to the blank group. After culturing for 48 h, centrifugation was conducted at 1,100 rpm for 6 min, the medium in each well was discarded, 100 μL of an 11,11T working solution was added, and the culturing was continued for 3 h. Centrifugation was conducted at 3,300 rpm. for 5 min, the MITT medium in each well was discarded, 100 pt, of the DMSO was added, and the plate was shaken for 5 min to dissolve all crystals in each well. An absorbance of the sample at 562 nm was detected by a microplate reader. Each set of data was an average of three independent experimental results on the same sample.

[2] = system: CT26 mouse colon cancer cells; assay: Cytotoxicity (MTT) in combination with chemotherapeutic drugs;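 also: MTT read-out taken as absorbance at 562 nm after a 3 h dye incubation, medium-only wells as blank, values averaged over three independent experiments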
Protocol: as §1

[3] = system: Hela human cervical cancer cells; assay: Cytotoxicity (MTT) in combination with DOX; format: cell-based; conditions: 48 h, sensitizer 5 μg/mL in the combination
Protocol: as §1

[4] = system: MB49 mouse bladder cancer cells; assay: Cytotoxicity (MTT) in combination with DOX; format: cell-based; conditions: 48 h, sensitizer 5 μg/mL in the combination
Protocol: as §1

[5] = system: MC38 mouse colon cancer cells; assay: Cytotoxicity (MTT) in combination with DOX; format: cell-based; conditions: MC-38, 48 h, sensitizer 5 μg/mL in the combination
Protocol: as §1

[6] = system: B16F10 mouse melanoma cells; assay: Cytotoxicity (MTT) in combination with DOX; format: cell-based; conditions: B16-F10, 48 h, sensitizer 5 μg/mL in the combination
Protocol: as §1

[7] = system: BXPC-3 human pancreatic cancer cells; assay: Cytotoxicity (MTT) in combination with DOX; format: cell-based; conditions: 48 h, sensitizer 5 μg/mL in the combination
Protocol: as §1

[8] = system: A2780 Human ovarian cancer cells; assay: Cytotoxicity (MTT) in combination with DOX; format: cell-based; conditions: 48 h, sensitizer 5 μg/mL in the combination
Protocol: as §1

[9] = system: PC3 human prostate cancer cells; assay: Cytotoxicity (MTT) in combination with DOX; format: cell-based; conditions: 48 h, sensitizer 5 μg/mL in the combination
Protocol: as §1

[10] = system: P388 mouse lymphoma cells; assay: Cytotoxicity (MTT) in combination with DOX; format: cell-based; conditions: 48 h, sensitizer 5 μg/mL in the combination
Protocol: as §1

[11] = system: HepG2 human hepatoma cells; assay: Cytotoxicity (MTT) in combination with DOX; format: cell-based; conditions: 48 h, sensitizer 5 μg/mL in the combination
Protocol: as §1

[12] = system: 4T1 mouse breast cancer cells; assay: Cytotoxicity (MTT) in combination with DOX; format: cell-based; conditions: 48 h, sensitizer 5 μg/mL in the combination
Protocol: as §1

[13] = system: HePa1-6 mouse hepatoma cells; assay: Cytotoxicity (MTT) in combination with DOX; format: cell-based; conditions: 48 h, sensitizer 5 μg/mL in the combination
Protocol: as §1

[14] = system: LLC mouse lung cancer cells; assay: Cytotoxicity (MTT) in combination with DOX; format: cell-based; conditions: 48 h, sensitizer 5 μg/mL in the combination
Protocol: as §1

H22 mouse hepatoma cells = assay: Cytotoxicity (MTT) in combination with DOX; format: cell-based; conditions: 48 h, sensitizer 5 μg/mL in the combination
Protocol: as §1

[15] = system: HGC-27 human gastric cancer cells; assay: Cytotoxicity (MTT) in combination with DOX; format: cell-based; conditions: 48 h, sensitizer 5 μg/mL in the combination
Protocol: as §1

[16] = system: MDA-MB-231 human breast cancer cells; assay: Cytotoxicity (MTT) in combination with DOX; format: cell-based; conditions: 48 h, sensitizer 5 μg/mL in the combination
Protocol: as §1

C6 rat glioma cells = assay: Cytotoxicity (MTT) in combination with DOX; format: cell-based; conditions: Glioma cell, 48 h, sensitizer 5 μg/mL in the combination
Protocol: as §1

[17] = CT26 cell line, chemotherapeutic drug in combination with compound 7 (sensitizer 5 μg/mL), 48 h

In the case of `CCc1c2c(nc3ccc(O)cc13)-c1cc3c(c(=O)n1C2)COC(=O)[C@]3(O)CC` [7-ethyl-10-hydroxycamptothecine], the IC50 [1] is reported as 0.066 ± 0.006 µg/mL (≈ 0.168 µM) and the “IC50, Compound 7+” value [2, 17] is reported as 0.025 ± 0.001 µg/mL.
`O=C1[O][Pt]2([NH][C@@H]3CCCC[C@H]3[NH]2)[O]C1=O` [Oxaliplatin] was tested, and the “IC50, Compound 7+” value [2] was 0.197 ± 0.022 µg/mL and the “IC50, Compound 7−” value [2] was 0.650 ± 0.009 µg/mL.
For `O=C1[O][Pt]2([NH][C@@H]3CCCC[C@H]3[NH]2)[O]C1=O` [Eloxatin], the “IC50, Compound 7+” value [2, 17] was 2.497 ± 0.185 µg/mL.
For `N.N.O=C([O-])C1(C(=O)[O-])CCC1.[Pt+2]` [Carboplatin], the IC50 [1] was 0.761 ± 0.044 µg/mL and the “IC50, Compound 7+” value [2, 17] was 0.192 ± 0.052 µg/mL.
`COc1cccc2c1C(=O)c1c(O)c3c(c(O)c1C2=O)C[C@@](O)(C(=O)CO)C[C@@H]3O[C@H]1C[C@H](N)[C@H](O)[C@H](C)O1` [DOX, doxorubicin] showed an IC50 [3] of 2.77 ± 0.492 µg/mL, an IC50 [4] of 0.447 ± 0.022 µg/mL and an IC50 [5] of 0.411 ± 0.017 µg/mL. It also gave an IC50 [6] of 0.214 ± 0.011 µg/mL, an IC50 [7] of 14.2 ± 1.68 µg/mL and an IC50 [8] of 10.1 ± 1.24 µg/mL. It also gave an IC50 [9] of 2.32 ± 0.195 µg/mL, an IC50 [10] of 0.197 ± 0.029 µg/mL and an IC50 [11] of 3.45 ± 0.778 µg/mL. The IC50 [12] was 1.76 ± 0.221 µg/mL, the IC50 [13] was 1.35 ± 0.331 µg/mL and the IC50 [14] was 0.088 ± 0.007 µg/mL. It also gave an IC50 (H22 mouse hepatoma cells) of 5.13 ± 0.119 µg/mL, an IC50 ([2]; Mus musculus, CT26, 48 h) of 0.256 ± 0.017 µg/mL and an IC50 [15] of 1.82 ± 0.227 µg/mL. It also gave an IC50 [16] of 3.57 ± 0.153 µg/mL and an IC50 (C6 rat glioma cells) of 0.119 ± 0.026 µg/mL.
`N.N.[Cl][Pt][Cl]` [Cis-platinum] was tested, and the IC50 [1] was 1.28 ± 0.146 µg/mL and the “IC50, Compound 7+” value [2, 17] was 0.571 ± 0.068 µg/mL.
`CC(=O)O[C@@]12CO[C@@H]1C[C@H](O)[C@@]1(C)C(=O)[C@H](O)C3=C(C)[C@@H](OC(=O)[C@H](O)[C@@H](NC(=O)OC(C)(C)C)c4ccccc4)C[C@@](O)([C@@H](OC(=O)c4ccccc4)[C@H]21)C3(C)C` [Docetaxel] was tested, and the “IC50, Compound 7+” value [2, 17] was 0.029 ± 0.005 µg/mL.
For `CC(C)=CCC[C@]1(C)C=Cc2c(O)c3c(c(CC=C(C)C)c2O1)O[C@]12C(=C[C@@H]4C[C@H]1C(C)(C)O[C@@]2(C/C=C(/C)C(=O)O)C4=O)C3=O` [Gambogic acid], the IC50 [1] was 2.18 ± 0.454 µg/mL (≈ 3.47 µM) and the “IC50, Compound 7+” value [2, 17] was 0.792 ± 0.181 µg/mL.
